{"source": "paper PMC6656724", "about": "(Communications Biology, 2019)", "system": "KMO activity in the striatum", "test": "De novo 3-HK synthesis after intrastriatal [5-3H]-kynurenine", "type": "in vivo, Sprague–Dawley rats", "description": "The prodrug (5 mg/kg) was administered intravenously to rats, immediately followed by an intrastriatal infusion of [^3H]-KYN. Tritiated KP metabolites were analysed after 1 h. A significant ~70% reduction (P < 0.01) in [^3H]-3-HK was observed (Fig. 3f) in parallel with minor increases in [^3H]-QUIN and […] (data not shown)—mirroring the results using a focal intracerebral injection of a KMO inhibitor[17].\nThe radioactive tracer method previously described by Guidetti et al. (1995)[31] was used to study acute KP metabolism in the brain in vivo. To this end, adult male Sprague–Dawley rats (weighing 270–300 g) were anesthetized with isoflurane using a vaporiser (induction dose 5%, maintenance dose 2%, v/v, in 100% oxygen) and placed in a stereotaxic frame. […] After thawing, tritiated KP metabolites were detected and analysed as described previously. The production of newly formed [^3H]-KYNA, [^3H]-3-HK and [^3H]-QUIN was expressed as a percentage of the total radioactivity recovered per striatum. […] The mobile phase was flown at 1.2 ml/min (Waters 515 HPLC Pump) through YMC-Pack Pro C18 (250 × 4.6 mm) column and detected with UV (Applied Biosystems 785A Absorbance Detector) at 254 nm then mixed with LabLogic FlowLogic U scintillation fluid flowing at 2.7 mL/min and radiation was detected (Berthold Technologies FlowStar LB514).", "note": "Several values for one entry are separate records, joined by “and”; a condition that tells them apart may be missing. Identical values can stand only once.", "data": [{"smiles": "CCOC(=O)CN1C(=O)COc2cc(C)c(Cl)c(C)c21", "note": "[1b]", "values": [{"measurement": "Reduction in [3H]-3-HK", "setting": "rat striatum, 5 mg/kg i.v., 1 h, vs vehicle", "result": "~ 70%"}, {"measurement": "Percentage of [5-3H]-KYN that is metabolized into [3H]-3-HK", "setting": "striatum of awake rats, 1 h after 5 mg/kg i.v., single rats, listed as Prodrug 1b", "result": "0.72% and 0.39% and 1.91% and 0.11% and 1.44% and 0.83% and 2.24% and 1.06% and 1.38% and 0.19%"}]}]}
